# Source: patent publication US11384063B2, “Modulators of estrogen receptor proteolysis and associated methods of use” (Arvinas Operations, Inc., priority 2017, dated 2022)
# Target: T1, ERα (Homo sapiens, UniProt P03372)
# T1 sequence (P03372 1-595): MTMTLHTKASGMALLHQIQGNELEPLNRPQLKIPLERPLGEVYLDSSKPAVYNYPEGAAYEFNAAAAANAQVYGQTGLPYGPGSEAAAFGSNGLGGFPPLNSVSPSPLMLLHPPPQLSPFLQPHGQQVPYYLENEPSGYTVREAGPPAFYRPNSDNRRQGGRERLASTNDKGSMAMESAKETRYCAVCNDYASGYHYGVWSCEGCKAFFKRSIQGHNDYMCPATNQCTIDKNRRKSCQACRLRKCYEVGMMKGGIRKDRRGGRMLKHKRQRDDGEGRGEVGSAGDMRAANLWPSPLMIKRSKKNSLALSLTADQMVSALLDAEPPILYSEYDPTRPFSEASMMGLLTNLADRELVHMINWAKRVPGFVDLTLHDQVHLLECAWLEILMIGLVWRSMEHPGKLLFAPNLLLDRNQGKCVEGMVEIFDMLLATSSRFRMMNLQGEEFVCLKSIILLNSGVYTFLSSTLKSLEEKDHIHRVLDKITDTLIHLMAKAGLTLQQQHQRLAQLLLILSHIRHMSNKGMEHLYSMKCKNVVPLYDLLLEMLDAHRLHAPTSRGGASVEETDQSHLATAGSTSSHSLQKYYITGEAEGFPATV
# Test: ERE luciferase reporter gene assay in T47D-KBluc cells (target engagement)
# Format: cell-based
# Design: T47D human breast cancer cells stably transfected with estrogen responsive element/promoter/luciferase reporter gene; host or cells: T47D-KBluc cells
# Conditions: 10% FBS, 24 hours, Table 1 cereblon centric PROTACs, read-out: ER-α Luciferase IC50
# Procedure: Chimeric molecules were assessed for target engagement in T47D cells using the commercial kit of ERE luciferase reporter gene assay. In the assay, 10% FBS was included and estrogen level was measured to be 10 pM.
# ERE Luciferase Assay for Compounds in Table 1-3.
# T47D-KBluc cells (ATCC #CRL_2865, T47D human breast cancer cells stably transfected with estrogen responsive element/promoter/luciferase reporter gene) were seeded into 96-well white opaque plates in RPMI growth medium supplemented with 10% fetal bovine serum and allowed to adhere overnight in a 37° C. humidified incubator. The following day, cells were treated with PROTACs in a 12-point concentration curve (top final concentration of 300 nM with subsequent concentrations being 3-fold less with 2 pM being the lowest concentration in the assay). Each PROTAC was tested independently in two experiments on 96-well plates. After 24 hours, media was removed and lysis buffer was added to the wells. Following lysis, Bright-Glo™ Luciferase Assay Substrate (Prornega, Madison Wis.) was added and the luciferase activity was measured using a Cytation 3 plate reader (TioTek™, Winooski, Vt.). Each compound was assayed in duplicates and the activity was calculated as IC50 using GraphPad Prism software (San Diego, Calif.).
row,IC50,Compound
1,17.7 nM,O=C1CCC(N2C(=O)c3ccc(N4CCN(CCCOc5ccc(Oc6c(-c7ccc(Br)cc7)sc7cc(O)ccc67)cc5)CC4)cc3C2=O)C(=O)N1 (stereo not shown) [Compound 49]
2,4.2 nM,O=C1CCC(N2Cc3c(OCCN4CC5(CN(CCOc6ccc(Oc7c(-c8ccc(Br)cc8)sc8cc(O)ccc78)cc6)C5)C4)cccc3C2=O)C(=O)N1 (stereo not shown) [Compound 37]
3,11 nM,O=C1CCC(N2Cc3cc(NCCOCCOCCOc4ccc(Oc5c(-c6ccc(Br)cc6)sc6cc(O)ccc56)cc4)ccc3C2=O)C(=O)N1 (stereo not shown) [Compound 86]
4,2.7 nM,O=C1CCC(N2Cc3c(OCCOc4ccc(Oc5c(-c6ccc(Br)cc6)sc6cc(O)ccc56)cc4)cccc3C2=O)C(=O)N1 (stereo not shown) [Compound 28]
5,1.3 nM,C[C@H](COc1ccc(Oc2c(-c3ccc(Br)cc3)sc3cc(O)ccc23)cc1)N1CCN(CCOc2cccc3c2CN(C2CCC(=O)NC2=O)C3=O)CC1 (stereo partly shown) [Compound 13]
6,1.9 nM,O=C1CC[C@H](N2Cc3cc(OCC(=O)N4CCN(CCOc5ccc(Oc6c(-c7ccc(Br)cc7)sc7cc(O)ccc67)cc5)CC4)ccc3C2=O)C(=O)N1 [Compound 8]
7,32.2 nM,O=C1CCC(N2C(=O)c3ccc(NCCCOCCCOc4ccc(Oc5c(-c6ccc(Br)cc6)sc6cc(O)ccc56)cc4)cc3C2=O)C(=O)N1 (stereo not shown) [Compound 82]
8,1.1 nM,O=C1CC[C@@H](N2Cc3cc(OCCN4C[C@H]5C[C@@H]4CN5CCOc4ccc(Oc5c(-c6ccc(Br)cc6)sc6cc(O)ccc56)cc4)ccc3C2=O)C(=O)N1 [Compound 38]
9,22.4 nM,O=C1CCC(N2C(=O)c3cccc(NCCOCCOCCOCCOc4ccc(Oc5c(-c6ccc(Br)cc6)sc6cc(O)ccc56)cc4)c3C2=O)C(=O)N1 (stereo not shown) [Compound 23]
10,8.4 nM,O=C1CCC(N2C(=O)c3ccc(NCCCOCCOc4ccc(Oc5c(-c6ccc(Br)cc6)sc6cc(O)ccc56)cc4)cc3C2=O)C(=O)N1 (stereo not shown) [Compound 81]
11,2.9 nM,O=C1CCC(N2Cc3c(OCCOCCOc4ccc(Oc5c(-c6ccc(Br)cc6)sc6cc(O)ccc56)cc4)cccc3C2=O)C(=O)N1 (stereo not shown) [Compound 17]
12,5.9 nM,O=C1CCC(N2C(=O)c3ccc(NCCCC4CCN(CCOc5ccc(Oc6c(-c7ccc(Br)cc7)sc7cc(O)ccc67)cc5)CC4)cc3C2=O)C(=O)N1 (stereo not shown) [Compound 68]
13,41.4 nM,O=C1CCC(N2Cc3c(NCCOCCOCCOCCOc4ccc(Oc5c(-c6ccc(Br)cc6)sc6cc(O)ccc56)cc4)cccc3C2=O)C(=O)N1 (stereo not shown) [Compound 22]
14,4.7 nM,O=C1CCC(N2Cc3cc(OCCCOCCCOCCCOc4ccc(Oc5c(-c6ccc(Br)cc6)sc6cc(O)ccc56)cc4)ccc3C2=O)C(=O)N1 (stereo not shown) [Compound 36]
15,3.1 nM,O=C1CCC(N2Cc3cc(NCCOCCOc4ccc(Oc5c(-c6ccc(Br)cc6)sc6cc(O)ccc56)cc4)ccc3C2=O)C(=O)N1 (stereo not shown) [Compound 72]
16,8.3 nM,O=C1CCC(N2Cc3c(NCCOCCOc4ccc(Oc5c(-c6ccc(Br)cc6)sc6cc(O)ccc56)cc4)cccc3C2=O)C(=O)N1 (stereo not shown) [Compound 27]
17,2.9 nM,O=C1CC[C@@H](N2Cc3c(OCc4ccc(CN5CCN(CCOc6ccc(Oc7c(-c8ccc(Br)cc8)sc8cc(O)ccc78)cc6)CC5)nc4)cccc3C2=O)C(=O)N1 [Compound 9]
18,11.4 nM,O=C1CCC(N2C(=O)c3ccc(NCCOCCOCCOc4ccc(Oc5c(-c6ccc(Br)cc6)sc6cc(O)ccc56)cc4)cc3C2=O)C(=O)N1 (stereo not shown) [Compound 67]
19,0.54 nM,O=C1CC[C@H](N2Cc3cc(OCCOC4CCN(CCOc5ccc(Oc6c(-c7ccc(Br)cc7)sc7cc(O)ccc67)cc5)CC4)ccc3C2=O)C(=O)N1 [Compound 44]
20,29.9 nM,O=C1CCC(N2C(=O)c3ccc(N4CCN(CCCCOc5ccc(Oc6c(-c7ccc(Br)cc7)sc7cc(O)ccc67)cc5)CC4)cc3C2=O)C(=O)N1 (stereo not shown) [Compound 60]
21,0.63 nM,O=C1CCC(N2C(=O)c3cccc(NCCN4CCN(CCOc5ccc(Oc6c(-c7ccccc7)sc7cc(O)ccc67)cc5)CC4)c3C2=O)C(=O)N1 (stereo not shown) [Compound 10]
22,0.53 nM,O=C1CC[C@H](N2Cc3cc(OCCN4C[C@@H]5C[C@H]4CN5CCOc4ccc(Oc5c(-c6ccc(Br)cc6)sc6cc(O)ccc56)cc4)ccc3C2=O)C(=O)N1 [Compound 42]
23,1 nM,O=C1CCC(N2Cc3cc(OCCCN4CCN(CCOc5ccc(Oc6c(-c7ccc(Br)cc7)sc7cc(O)ccc67)cc5)CC4)ccc3C2=O)C(=O)N1 (stereo not shown) [Compound 34]

# Same assay, conditions: 10% FBS, 24 hours, Table 2 VHL centric PROTACs, read-out: IC50
row,IC50,Compound
1,32 nM,CC(C)(C)[C@H](NC(=O)COCCOCCN1CCC(c2ccc(Oc3c(-c4ccc(F)cc4)sc4cc(O)ccc34)cc2)CC1)C(=O)N1C[C@H](O)C[C@H]1C(=O)NCc1ccc(C#N)cc1 [Compound 143]
2,5.5 nM,Cc1ncsc1-c1ccc(CNC(=O)[C@@H]2C[C@@H](O)CN2C(=O)[C@@H](NC(=O)COCCO[C@H]2CCN(CCOc3ccc(Oc4c(-c5ccc(F)cc5)sc5cc(O)ccc45)cc3)C2)C(C)(C)C)cc1 [Compound 123]
3,> 100 nM,COc1ccc2c(Oc3ccc(OCCN4CCN(CCOCC(=O)N[C@H](C(=O)N5CCC[C@H]5C(=O)NCc5ccc(-c6scnc6C)cc5)C(C)(C)C)CC4)cc3)c(-c3ccc(Br)cc3)sc2c1 [Compound 157]
4,23.7 nM,"Cc1ncsc1-c1ccc([C@H](C)NC(=O)[C@@H]2C[C@@H](O)CN2C(=O)[C@@H](NC(=O)COCCOCCCOc2ccc(Oc3c(-c4ccc(F)cc4)sc4cc(O)ccc34)cc2)C(C)(C)C)cc1 [Compound 113, (2S,4R)-1-((S)-2-(2-(2-(3-(4-(2-(4-fluorophenyl)-6-hydroxybenzo[b]thiophen-3-yloxy)phenoxy)propoxy)ethoxy)acetamido)-3,3-dimethylbutanoyl)-4-hydroxy-N—((S)-1-(4-(4-methylthiazol-5-yl)phenyl)ethyl)pyrrolidine-2-carboxamide]"
5,> 100 nM,Cc1ncsc1-c1ccc(CNC(=O)[C@H]2C[C@H](O)CN2C(=O)[C@@H](NC(=O)COCCN2CCN(CCOc3ccc(Oc4c(-c5ccc(Br)cc5)sc5cc(O)ccc45)cc3)CC2)C(C)(C)C)cc1 [Compound 152]
6,1.6 nM,Cc1ncsc1-c1ccc(CNC(=O)[C@@H]2C[C@@H](O)CN2C(=O)[C@@H](NC(=O)CCCC(=O)N2CCN(CCOc3ccc(Oc4c(-c5ccc(F)cc5)sc5cc(O)ccc45)cc3)[C@H](C)C2)C(C)(C)C)cc1 [Compound 125]
7,> 100 nM,Cc1ncsc1-c1ccc(CNC(=O)[C@@H]2C[C@@H](O)CN2C(=O)[C@@H](NC(=O)CCCN2CC3CN(CCOc4ccc(Oc5c(-c6ccc(F)cc6)sc6cc(O)ccc56)cc4)CC3C2)C(C)(C)C)cc1 (stereo partly shown) [Compound 122]
8,15.8 nM,"Cc1ncsc1-c1ccc([C@H](C)NC(=O)[C@@H]2C[C@@H](O)CN2C(=O)[C@@H](NC(=O)COCCCOCCCOc2ccc(Oc3c(-c4ccc(F)cc4)sc4cc(O)ccc34)cc2)C(C)(C)C)cc1 [Compound 112, (2S,4R)-1-((S)-2-(2-(3-(3-(4-(2-(4-fluorophenyl)-6-hydroxybenzo[b]thiophen-3-yloxy)phenoxy)propoxy)propoxy)acetamido)-3,3-dimethylbutanoyl)-4-hydroxy-N—((S)-1-(4-(4-methylthiazol-5-yl)phenyl)ethyl)pyrrolidine-2-carboxamide]"

# Same assay, conditions: 10% FBS, 24 hours, Table 3 cereblon centric PROTACs, read-out: ER-α Luciferase IC50
row,IC50,Compound
1,2.8 nM,O=C1CCC(N2C(=O)c3ccc(CCCCN4CCCN(CCOc5ccc(Oc6c(-c7ccc(Br)cc7)sc7cc(O)ccc67)cc5)CC4)cc3C2=O)C(=O)N1 (stereo not shown) [Compound 197]
2,2.8 nM,O=C1CCC(N2C(=O)c3ccc(N4CC(CN5CCC(c6ccc(Oc7c(-c8ccc(Br)cc8)sc8cc(O)ccc78)cc6)CC5)C4)cc3C2=O)C(=O)N1 (stereo not shown) [Compound 209]
3,13.3 nM,O=C1CCC(N2Cc3c(cc(F)c(N4CCN(C5CC6(C5)CN(CCOc5ccc(Oc7c(-c8ccc(C(F)(F)F)cc8)sc8cc(O)ccc78)cc5)C6)CC4)c3F)C2=O)C(=O)N1 (stereo not shown) [Compound 206]
4,11.4 nM,O=C1CCC(N2Cc3cc(N4CCN(CCCOc5ccc(Oc6c(-c7ccc(C(F)(F)F)cc7)sc7cc(O)ccc67)cc5)CC4)ccc3C2=O)C(=O)N1 (stereo not shown) [Compound 207]
5,6.7 nM,O=C1CCC(N2Cc3cc(N4CC(CN5CCC(c6ccc(Oc7c(-c8ccc(Br)cc8)sc8cc(O)ccc78)cc6)CC5)C4)ccc3C2=O)C(=O)N1 (stereo not shown) [Compound 241]
6,8.4 nM,O=C1CCC(N2Cc3cc(N4CCN(CC5CCN(CCOc6ccc(Oc7c(-c8ccc(C(F)(F)F)cc8)sc8cc(O)ccc78)cc6)CC5)CC4)ccc3C2=O)C(=O)N1 (stereo not shown) [Compound 200]
